Read-outs that look alike come from different tables or passages of the source.
Legend:
M1 muscarinic receptor = target: T1, M1 muscarinic receptor (Homo sapiens, UniProt P11229); test: Functional mobilization of intracellular calcium (FLIPR) in M1-CHO cells; type: cell-based
T1 construct: expressed in transfected cells; host or cells: CHO (M1-CHO)
T1 sequence (P11229 1-460): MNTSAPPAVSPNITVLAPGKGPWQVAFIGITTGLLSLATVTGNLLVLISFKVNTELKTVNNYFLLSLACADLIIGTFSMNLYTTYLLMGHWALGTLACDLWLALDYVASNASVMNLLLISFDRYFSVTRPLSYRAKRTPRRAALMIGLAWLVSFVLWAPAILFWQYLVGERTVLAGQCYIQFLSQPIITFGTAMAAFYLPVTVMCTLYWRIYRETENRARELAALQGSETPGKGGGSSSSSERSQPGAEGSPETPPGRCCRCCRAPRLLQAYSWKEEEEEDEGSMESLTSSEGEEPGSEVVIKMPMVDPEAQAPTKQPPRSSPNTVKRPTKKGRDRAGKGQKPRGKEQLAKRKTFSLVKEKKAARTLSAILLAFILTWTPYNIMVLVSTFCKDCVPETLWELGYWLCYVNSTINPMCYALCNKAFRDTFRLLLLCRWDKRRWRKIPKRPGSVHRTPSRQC
Summary of the method: (§1)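 CHO cells stably expressing human M1 or M4 receptor were loaded with Fluo-3 AM (or Calcium 3 dye) in Hepes-buffered saline, pH 7.4, with 1 mM probenecid, 0.5% final DMSO. Agonist mode: compound added directly; antagonist mode: 15 min preincubation before carbachol at EC80. FLIPR fluorescence recorded 60 sec.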

M4 muscarinic receptor = target: T2, M4 muscarinic receptor (Homo sapiens, UniProt P08173); test: Functional mobilization of intracellular calcium (FLIPR) in M4-CHO cells; type: cell-based
T2 construct: expressed in transfected cells; host or cells: CHO (M4-CHO)
T2 sequence (P08173 1-479): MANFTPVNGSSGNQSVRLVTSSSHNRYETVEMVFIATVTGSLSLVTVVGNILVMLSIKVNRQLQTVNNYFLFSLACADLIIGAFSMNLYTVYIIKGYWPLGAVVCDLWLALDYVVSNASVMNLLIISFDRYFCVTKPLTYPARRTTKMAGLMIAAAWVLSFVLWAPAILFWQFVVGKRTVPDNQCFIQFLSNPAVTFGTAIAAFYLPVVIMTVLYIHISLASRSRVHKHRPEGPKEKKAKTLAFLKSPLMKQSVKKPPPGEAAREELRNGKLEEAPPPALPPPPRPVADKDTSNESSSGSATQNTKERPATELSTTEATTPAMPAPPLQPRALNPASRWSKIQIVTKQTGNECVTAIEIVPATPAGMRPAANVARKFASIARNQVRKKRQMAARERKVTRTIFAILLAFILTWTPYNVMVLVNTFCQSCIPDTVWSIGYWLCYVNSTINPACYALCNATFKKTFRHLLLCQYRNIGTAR
Summary of the method: as §1

[1] = M1 receptor, calcium mobilization
[2] = M1 receptor, calcium mobilization, read-out: M1 Efficacy
[3] = M4 receptor, calcium mobilization
[4] = M4 receptor, calcium mobilization, read-out: M4 Efficacy
[5] = Table 4, 100% efficacy is the maximum response obtained with the Carbachol control
[6] = Table 4, M1 receptor, calcium mobilization (FLIPR)
[7] = Table 4, M4 receptor, calcium mobilization (FLIPR)
[8] = Table 4, modulating M1 receptor
[9] = Table 4, modulating M4 receptor

Structure (SMILES) | M1 Activity (M1 muscarinic receptor; [1]) | Emax (M1 muscarinic receptor; [2]) | M4 Activity (M4 muscarinic receptor; [3]) | Emax (M4 muscarinic receptor; [4]) | Emax (M1 muscarinic receptor; [5]) | M1 Activity (M1 muscarinic receptor; [6]) | Emax (M4 muscarinic receptor; [5]) | M4 Activity (M4 muscarinic receptor; [7]) | M1 Activity (M1 muscarinic receptor; [8]) | M4 Activity (M4 muscarinic receptor; [9])
Clc1ccc2c(c1)C1(CCN([C@H]3C[C@@H]4CC[C@H]3C4)CC1)CO2 [compound 181] | xx (activity was measured to be between 0.1 μM and 1.0 μM) | 65 to 85% | x (activity was measured to be greater than 1.0 μM) | 65 to 85% | – | – | – | – | – | –
CCO/N=C1\CC2(CCN([C@@H]3C[C@@H]4CC[C@@H]3C4)CC2)c2cc(Cl)ccc21 [compound 865] | – | – | – | – | 25 to 100% | xx (activity was measured to be between 2.0 μM and 5.0 μM) | 25 to 100% | xxx (activity was measured to be less than 2.0 μM) | – | –
CN(C)C(=O)N1CC2(CCN(C3CCN(C(=O)CC#N)CC3)CC2)c2cc(F)ccc21 [compound 729] | – | – | – | – | < 25% | – | < 25% | – | x (activity was measured to be greater than 5.0 μM) | x (activity was measured to be greater than 5.0 μM)
CC(C)OC(=O)N1C2CCC1CC(N1CCC3(CC1)CN(C(=O)OC1CCC1)c1ccc(F)cc13)C2 (stereo not shown) [compound 166] | xxx (activity was measured to be less than 0.1 μM) | > 85% | x (activity was measured to be greater than 1.0 μM) | > 85% | – | – | – | – | – | –
CN(C)C(=O)N1CC2(CCN(C3CCN(C(=O)c4ccccc4F)CC3)CC2)c2cc(F)ccc21 [compound 887] | – | – | – | – | 25 to 100% | xx (activity was measured to be between 2.0 μM and 5.0 μM) | < 25% | x (activity was measured to be greater than 5.0 μM) | – | –
Cc1ccc(N2CCC(N3CCC4(CC3)CN(C(=O)N(C)C)c3ccc(F)cc34)CC2)nn1 [compound 594] | – | – | – | – | 25 to 100% | – | < 25% | – | x (activity was measured to be greater than 5.0 μM) | xx (activity was measured to be between 2.0 μM and 5.0 μM)
CC(=O)N1CC2(CCN(C3CCNCC3)CC2)c2cc(F)ccc21 [compound 547] | – | – | – | – | 25 to 100% | – | 25 to 100% | – | xx (activity was measured to be between 2.0 μM and 5.0 μM) | x (activity was measured to be greater than 5.0 μM)
C#CCCOC(=O)N1C2CCC1CC(N1CCC3(CC1)CN(C(=O)N(C)C)c1ccc(F)cc13)C2 (stereo not shown) [compound 230] | x (activity was measured to be greater than 1.0 μM) | < 65% | xx (activity was measured to be between 0.1 μM and 1.0 μM) | > 85% | – | – | – | – | – | –
Clc1ccc2c(c1)C1(CCN(C3CC4CCC3C4)CC1)CN2 (stereo not shown) [compound 224] | x (activity was measured to be greater than 1.0 μM) | 65 to 85% | x (activity was measured to be greater than 1.0 μM) | < 65% | – | – | – | – | – | –
CS(=O)(=O)N1CC2(CCN(C3CC4CCC(C3)N4C(=O)O[C@@H]3CCOC3)CC2)c2cc(F)ccc21 (stereo partly shown) [compound 16] | xxx (activity was measured to be less than 0.1 μM) | 65 to 85% | xxx (activity was measured to be less than 0.1 μM) | 65 to 85% | – | – | – | – | – | –
CC(=O)N1CC2(CCN(C3CCCCCC3)CC2)c2cc(F)ccc21 [compound 210] | xx (activity was measured to be between 0.1 μM and 1.0 μM) | 65 to 85% | x (activity was measured to be greater than 1.0 μM) | < 65% | – | – | – | – | – | –
CN(C)C(=O)N1CC2(CCN(C3CCN(C(=O)CC(F)(F)F)CC3)CC2)c2cc(F)ccc21 [compound 592] | – | – | – | – | 25 to 100% | – | < 25% | – | xx (activity was measured to be between 2.0 μM and 5.0 μM) | x (activity was measured to be greater than 5.0 μM)
CC(=O)N[C@H]1CC2(CCN(C3CCN(C)CC3C)CC2)c2ccccc21 (stereo partly shown) [compound 436] | – | – | – | – | < 25% | – | < 25% | – | x (activity was measured to be greater than 5.0 μM) | x (activity was measured to be greater than 5.0 μM)

Reference: US7786141B2 (Vertex Pharmaceuticals Incorporated, priority 2004, dated 2010)
